Experimental data taken from patent US9580390B2, “Indazole compounds as kinase inhibitors and method of treating cancer with same” (University Health Network, priority 2011, dated 2017).

Legend:
[1] = test system: colon cancer cells (HCT116); experiment: Cancer cell line growth inhibition (SRB assay); format: cell-based; details: Homo sapiens, HCT-116; read-out: Cancer Cell Line GI50 Range HCT116
[2] = test system: ovarian cancer cells (PA-1); experiment: Cancer cell line growth inhibition (SRB assay); format: cell-based; details: Homo sapiens, PA-1; read-out: Cancer Cell Line GI50 Range PA-1
Protocol: Breast cancer cells (MDA-MB-231), colon cancer cells (HCT116) and ovarian cancer cells (PA-1) were seeded (1000 to 4000 in 80 μl per well depending on the cell growth rate) into 96 well plates 24 hours before compound overlay. Compounds were prepared as 10 mM stock solutions in 100% DMSO which were diluted with DMEM (Dulbecco's Modified Eagle's Medium) cell growth Medium (Invitrogen, Burlington, ON, Canada) containing 10% FBS (Fetal Bovine Serum) to concentrations ranging from 50 nM to 250 μM. Aliquots (20 μl) from each concentration were overlaid to 80 μl of the pre-seeded cells in the 96 well plates to make final concentrations of 10 nM to 50 μM. The cells were cultured for 5 days before the Sulforhodamine B assay (SRB) was performed to determine the compound's cell growth inhibition activity.
Sulforhodamine B (purchased from Sigma, Oakville, ON, Canada) is a water-soluble dye that binds to the basic amino acids of the cellular proteins. Thus, colorimetric measurement of the bound dye provides an estimate of the total protein mass that is related to the cell number. the cells are fixed in situ by gently aspirating off the culture media and adding 50 μl ice cold 10% Trichloroacetic Acid (TCA) per well and incubate at 4° C. for 30-60 min. The plates are washed with H2O five times and allowed to air dry for 5 min. Addition of 50 μl 0.4% (w/v) SRB solution in 1% (v/v) acetic acid to each well and incubation for 30 min at RT completes the staining reaction. Following staining, plates are washed four times with 1% acetic acid to remove unbound dye and then allowed to air dry for 5 min. The stain is solubilized with 100 μl of 10 mM Tris pH 10.5 per well. Absorbance is read at 570 nm.
The percentage (%) of relative growth inhibition was calculated by comparing to DMSO treated only cells (100%). GI50's were determined for compounds with cytotoxic activity. The GI50 was calculated using GraphPad PRISM software (GraphPad Software, Inc., San Diego, Calif., USA).

human TTK = target: T1, human TTK (Homo sapiens, UniProt P33981); experiment: TTK inhibition assay (indirect ELISA); format: biochemical; details: read-out: TTK IC50 Range
T1 construct: amino terminal GST fusion of full length human TTK; purchased Invitrogen
T1 sequence (P33981 1-857): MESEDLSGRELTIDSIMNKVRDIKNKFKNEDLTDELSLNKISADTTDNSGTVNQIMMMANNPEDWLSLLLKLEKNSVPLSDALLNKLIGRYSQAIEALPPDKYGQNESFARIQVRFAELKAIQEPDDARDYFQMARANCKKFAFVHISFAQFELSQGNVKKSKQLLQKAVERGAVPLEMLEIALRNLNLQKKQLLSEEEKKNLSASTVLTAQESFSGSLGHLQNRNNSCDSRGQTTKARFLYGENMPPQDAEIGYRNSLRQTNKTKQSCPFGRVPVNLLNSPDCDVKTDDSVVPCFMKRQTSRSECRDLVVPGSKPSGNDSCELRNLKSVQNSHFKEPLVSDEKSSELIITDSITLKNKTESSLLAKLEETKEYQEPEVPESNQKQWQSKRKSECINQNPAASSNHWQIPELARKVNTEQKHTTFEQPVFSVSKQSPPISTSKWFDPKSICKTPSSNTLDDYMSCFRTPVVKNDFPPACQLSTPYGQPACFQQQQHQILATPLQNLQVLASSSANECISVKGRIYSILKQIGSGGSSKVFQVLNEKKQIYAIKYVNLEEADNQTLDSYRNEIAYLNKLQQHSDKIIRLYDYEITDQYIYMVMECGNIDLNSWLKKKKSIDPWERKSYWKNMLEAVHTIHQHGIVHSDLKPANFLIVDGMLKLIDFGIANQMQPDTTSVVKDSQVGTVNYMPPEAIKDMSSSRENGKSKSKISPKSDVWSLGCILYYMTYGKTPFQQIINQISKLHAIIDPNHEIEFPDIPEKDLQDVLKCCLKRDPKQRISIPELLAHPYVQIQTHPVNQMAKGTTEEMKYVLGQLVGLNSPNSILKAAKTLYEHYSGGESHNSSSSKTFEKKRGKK

Breast cancer cells = experiment: Cancer cell line growth inhibition (SRB assay); format: cell-based; details: Homo sapiens; MDA-MB-468; read-out: Cancer Cell Line GI50 Range MDA-MB-468

For `O=C(N[C@H](c1ccsc1)C1CC1)c1ccc2[nH]nc(-c3ccc(N4C5CCC4CC(O)C5)cc3)c2c1` (stereo partly drawn) [Example A365, N-((S)-cyclopropyl(thiophen-3-yl)methyl)-3-(4-((1R,3S,5S)-3-hydroxy-8-azabicyclo[3.2.1]octan-8-yl)phenyl)-1H-indazole-5-carboxamide], the GI50 [1] was < 100 nM, the GI50 [2] was < 100 nM and the IC50 (human TTK) was < 100 nM. The GI50 (Breast cancer cells) was < 100 nM.
`CC(C)C[C@H](NC(=O)c1ccc2[nH]nc(-c3ccc(N4CCN(C5COC5)CC4)cc3)c2c1)c1ccccc1` [Example A371, (S)-N-(3-methyl-1-phenylbutyl)-3-(4-(4-(oxetan-3-yl)piperazin-1-yl)phenyl)-1H-indazole-5-carboxamide] was tested, and the GI50 [1] was < 100 nM, the GI50 [2] was < 100 nM and the IC50 (human TTK) was < 100 nM. It also gave a GI50 (Breast cancer cells) of 100 to 500 nM.
With `O=C(NC(c1ccccc1)C1CC1)c1ccc2[nH]nc(-c3ccc(O[C@H]4C[C@H]5CC[C@@H](C4)N5)cc3)c2c1` (stereo partly drawn) [Example A375, 3-(4-((1R,3R,5S)-8-azabicyclo[3.2.1]octan-3-yloxy)phenyl)-N-(cyclopropyl(phenyl)methyl)-1H-indazole-5-carboxamide] the GI50 [1] was < 100 nM, the GI50 [2] was < 100 nM and the IC50 (human TTK) was < 100 nM. The GI50 (Breast cancer cells) was 100 to 500 nM.
In the case of `CN1C2CCC1CC(Oc1ccc(-c3n[nH]c4ccc(C(=O)N[C@@H](c5ccccn5)C5CC5)cc34)cc1)C2` (stereo partly drawn) [Example A380, N-((R)-cyclopropyl(pyridin-2-yl)methyl)-3-(4-(((1R,3R,5S)-8-methyl-8-azabicyclo[3.2.1]octan-3-yl)oxy)phenyl)-1H-indazole-5-carboxamide], the GI50 [1] is reported as < 100 nM, the GI50 [2] is reported as < 100 nM and the IC50 (human TTK) is reported as < 100 nM. The GI50 (Breast cancer cells) was 100 to 500 nM.
With `CN1CCC(Oc2ccc(-c3n[nH]c4ccc(C(=O)NC(c5ccccn5)C(C)(C)C)cc34)cc2)CC1` (stereo not shown) [Example A388] the GI50 [1] was 100 to 500 nM, the GI50 [2] was 100 to 500 nM and the IC50 (human TTK) was < 100 nM. The GI50 (Breast cancer cells) was > 500 nM.
With `CN1C2CCC1CC(Oc1ccc(-c3n[nH]c4ccc(C(=O)NC(c5ccccn5)C5CCCC5)cc34)cc1)C2` (stereo not shown) [Example A398, N-(cyclopentyl(pyridin-2-yl)methyl)-3-(4-((8-methyl-8-azabicyclo[3.2.1]octan-3-yl)oxy)phenyl)-1H-indazole-5-carboxamide] the GI50 [1] was < 100 nM, the GI50 [2] was < 100 nM and the IC50 (human TTK) was < 100 nM. The GI50 (Breast cancer cells) was < 100 nM.
`CN1C2CCC1CC(Oc1ccc(-c3n[nH]c4ccc(C(=O)NC(c5ccccc5)C(F)(F)F)cc34)cc1)C2` (stereo not shown) [Example A400] was tested, and the GI50 [1] was 100 to 500 nM, the GI50 [2] was 100 to 500 nM and the IC50 (human TTK) was < 100 nM. For the same molecule, the GI50 (Breast cancer cells) was > 500 nM.
For `CC(C)[C@H](NC(=O)c1ccc2[nH]nc(-c3ccc(C4CCN(C5COC5)CC4)cc3)c2c1)c1ccccc1Cl` [Example A406, (S)-N-(1-(2-chlorophenyl)-2-methylpropyl)-3-(4-(4-(oxelan-3-yl)piperidin-1-yl)phenyl)-1H-indazole-5-carboxamide], the GI50 [1] was > 500 nM, the GI50 [2] was > 500 nM and the IC50 (human TTK) was < 100 nM. For the same molecule, the GI50 (Breast cancer cells) was > 500 nM.
`CN1CCC(Oc2ccc(-c3n[nH]c4ccc(C(=O)NC(c5ccccn5)C5CCCCC5)cc34)cc2)CC1` (stereo not shown) [Example A409, N-(cyclohexyl(pyridin-2-yl)methyl)-3-(4-((1-methylpiperidin-4-yl)oxy)phenyl)-1H-indazole-5-carboxamide] was tested, and the GI50 [1] was 100 to 500 nM, the GI50 [2] was 100 to 500 nM and the IC50 (human TTK) was < 100 nM. For the same molecule, the GI50 (Breast cancer cells) was 100 to 500 nM.
In the case of `CC(C)[C@@H](NC(=O)c1ccc2[nH]nc(-c3ccc(N4CCN(C5COC5)CC4)cc3)c2c1)c1ccccc1Cl` [Example A412, (R)-N-(1-(2-chlorophenyl)-2-methylpropyl)-3-(4-(4-(oxetan-3-yl)piperazin-1-yl)phenyl)-1H-indazole-5-carboxamide], the GI50 [1] is reported as < 100 nM, the GI50 [2] is reported as < 100 nM and the IC50 (human TTK) is reported as < 100 nM. The GI50 (Breast cancer cells) was 100 to 500 nM.
`CC(C)C[C@H](NC(=O)c1ccc2[nH]nc(-c3ccc(N4C5CCC4COC5)cc3)c2c1)c1ccccc1Cl` [Example A413, 3-(4-((1R,5S)-3-oxa-8-azabicyclo[3.2.1]octan-8-yl)phenyl)-N-((S)-(2-chlorophenyl)-3-methylbulyl)-1H-indazole-5-carboxamide] was tested, and the GI50 [1] was < 100 nM, the GI50 [2] was < 100 nM and the IC50 (human TTK) was < 100 nM. It also gave a GI50 (Breast cancer cells) of 100 to 500 nM.
In the case of `CC(C)C[C@H](NC(=O)c1ccc2[nH]nc(-c3ccc(N4[C@@H]5CCC[C@H]4COC5)cc3)c2c1)c1ccccc1Cl` [Example A417, 3-(4-((1R,5S)-3-oxa-9-azabicyclo[3.3.1]nonan-9-yl)phenyl)-N-((S)-(2-chlorophenyl)-3-methylbutyl)-1 H-indazole-5-carboxamide], the GI50 [1] is reported as 100 to 500 nM, the GI50 [2] is reported as 100 to 500 nM and the IC50 (human TTK) is reported as < 100 nM. It also gave a GI50 (Breast cancer cells) of 100 to 500 nM.
In the case of `O=C(N[C@@H](c1ccccn1)C1CCCC1)c1ccc2[nH]nc(-c3ccc(N4C5COCC4CC(O)C5)cc3)c2c1` (stereo partly drawn) [Example A425, N-((R)-cyclopentyl(pyridin-2-yl)methyl)-3-(4-((1R,5S,7R)-7-hydroxy-3-oxa-9-azabicyclo[3.3.1]nonan-9-yl)phenyl)-1H-indazole-5-carboxamide], the GI50 [1] is reported as < 100 nM, the GI50 [2] is reported as < 100 nM and the IC50 (human TTK) is reported as < 100 nM. For the same molecule, the GI50 (Breast cancer cells) was < 100 nM.
`O=C(NCC1(OC2CCCC2)CCCCC1)c1ccc2[nH]nc(-c3ccc(OC4CCN(C5COC5)CC4)cc3)c2c1` [Example A434, N-((1-(cyclopentyloxy)cyclohexyl)methyl)-3-(4-((1-(oxetan-3-yl)piperidin-4-yl)oxy)phenyl)-1H-indazole-5-carboxamide] was tested, and the GI50 [1] was > 500 nM, the GI50 [2] was > 500 nM and the IC50 (human TTK) was < 100 nM. The GI50 (Breast cancer cells) was > 500 nM.
With `CN1[C@@H]2CC[C@H]1C[C@@H](Oc1ccc(-c3n[nH]c4ccc(C(=O)NCC5(OC6CCCC6)CCCCC5)cc34)cc1)C2` [Example A438] the GI50 [1] was 100 to 500 nM, the GI50 [2] was 100 to 500 nM and the IC50 (human TTK) was < 100 nM. For the same molecule, the GI50 (Breast cancer cells) was > 500 nM.
With `CCC(CC)(CNC(=O)c1ccc2[nH]nc(-c3ccc(OC4CCN(C5COC5)CC4)cc3)c2c1)c1ccccc1` [Example A439, N-(2-ethyl-2-phenylbutyl)-3-(4-((1-(oxetan-3-yl)piperidin-4-yl)oxy)phenyl)-1H-indazole-5-carboxamide] the GI50 [1] was 100 to 500 nM, the GI50 [2] was 100 to 500 nM and the IC50 (human TTK) was < 100 nM. For the same molecule, the GI50 (Breast cancer cells) was 100 to 500 nM.
For `CCC(CC)(CNC(=O)c1ccc2[nH]nc(-c3ccc(OC4CCN(C)CC4)cc3)c2c1)c1ccccc1` [Example A440, N-(2-ethyl-2-phenylbutyl)-3-(4-((1-methylpiperidin-4-yl)oxy)phenyl)-1H-indazole-5-carboxamide], the GI50 [1] was 100 to 500 nM, the GI50 [2] was 100 to 500 nM and the IC50 (human TTK) was < 100 nM. The GI50 (Breast cancer cells) was 100 to 500 nM.
With `CCC(CC)(CNC(=O)c1ccc2[nH]nc(-c3ccc(N4CCN(C)CC4)cc3)c2c1)c1ccccc1` [Example A441, N-(2-ethyl-2-phenylbutyl)-3-(4-(4-methylpiperazin-1-yl)phenyl)-1H-indazole-5-carboxamide] the GI50 [1] was 100 to 500 nM, the GI50 [2] was 100 to 500 nM and the IC50 (human TTK) was < 100 nM. For the same molecule, the GI50 (Breast cancer cells) was 100 to 500 nM.
With `CN1CCC(Oc2ccc(-c3n[nH]c4ccc(C(=O)NCC5(OC6CCCC6)CCCCC5)cc34)cc2)CC1` [Example A442, N-((1-(cyclopentyloxy)cyclohexyl)methyl)-3-(4-((1-methylpiperidin-4-yl)oxy)phenyl)-1H-indazole-5-carboxamide] the GI50 [1] was > 500 nM, the GI50 [2] was > 500 nM and the IC50 (human TTK) was < 100 nM. The GI50 (Breast cancer cells) was > 500 nM.
